Results published in ChEMBL document CHEMBL1125482, “Pharmacokinetics of catechol cephalosporins. The effect of incorporating substituents into the catechol moiety on pharmacokinetics in a marmoset model” (J Med Chem, 1992).
Converted amounts (≈) assume the structure as drawn.

What was measured:
Canis familiaris = species on record: Canis familiaris; details: dog, in vivo, iv
in vivo = details: callithrix, serum, iv
Description: Serum T1/2 in marmosets (IV dose)

Escherichia coli [1] = assay: microbe, parasite or virus in culture
Description: Compound was tested for antimicrobial activity against Escherichia coli DC2 strain (permeability mutant)

Staphylococcus aureus [2] = assay: microbe, parasite or virus in culture
Description: Compound was tested for antimicrobial activity against Staphylococcus aureus Oxford strain

Mus musculus [3] = assay: Compound was evaluated in vivo for antibacterial activity against Pseudomonas aeruginosa (strain 101010) in mice; range 1.0-6.0 mg/Kg; format: functional
Pseudomonas aeruginosa [4] = assay: microbe, parasite or virus in culture
Enterobacter cloacae [5] = assay: microbe, parasite or virus in culture
Description: Compound was tested for antimicrobial activity against Enterobacter cloacae constitutive derepressed type I beta-lactamase producer (P99+) strain

Pseudomonas aeruginosa [6] = assay: microbe, parasite or virus in culture; remark: listed apart in the source
Description: Compound was tested for antimicrobial activity against Pseudomonas aeruginosa PU21 strain

Staphylococcus aureus [7] = assay: microbe, parasite or virus in culture; remark: listed apart in the source
Description: Compound was tested for antimicrobial activity against Staphylococcus aureus penicillin sensitive Staphylococcus aureus (147N) strain

Enterobacter cloacae [8] = assay: microbe, parasite or virus in culture; remark: listed apart in the source
Description: Compound was tested for antimicrobial activity against Enterobacter cloacae inducible type I beta-lactamase producer (P99-) strain

Escherichia coli [9] = assay: microbe, parasite or virus in culture; remark: listed apart in the source
Description: Compound was tested for antimicrobial activity against Escherichia coli DC0 strain (parent organism)

Homo sapiens [10] = species on record: Homo sapiens; assay: Compound is evaluated for serum protein binding in human blood […]; format: functional
[11] = Urinary recovery in marmosets (IV dose); format: ADME, organism-based; details: callithrix, urine, read-out: Recovery
Mus musculus [12] = assay: Compound was evaluated in vivo for antibacterial activity against Pseudomonas aeruginosa (strain 101010) in mice; format: functional; details: read-out: PD50
Homo sapiens [13] = species on record: Homo sapiens; assay: Compound was tested for serum protein binding in human blood; format: functional
Pseudomonas aeruginosa [14] = assay: Compound was tested for antimicrobial activity against Pseudomonas aeruginosa constitutive derepressed type I beta-lactamase producer (18SH) strain; format: functional

Description for physchem: Dissociation constant (pKa)

Compound	AUC (Canis familiaris) [mg/h/L]	half-life (in vivo) [min]	MIC (Escherichia coli [1]) [ng/mL]	MIC (Staphylococcus aureus [2]) [µg/mL]	PD50 (Mus musculus [3]) [µg/mL]	MIC (Pseudomonas aeruginosa [4]) [µg/mL]	MIC (Enterobacter cloacae [5]) [µg/mL]	MIC (Pseudomonas aeruginosa [6]) [µg/mL]	MIC (Staphylococcus aureus [7]) [µg/mL]	MIC (Enterobacter cloacae [8]) [µg/mL]	MIC (Escherichia coli [9]) [µg/mL]	Activity (Homo sapiens [10]) [%]	dose excreted [11] [%]	ED50 (Mus musculus [12]) [mg/kg]	pKa (physchem)	Activity (Homo sapiens [13]) [%]	MIC (Pseudomonas aeruginosa [14]) [µg/mL]
CC(C)(O/N=C(\C(=O)N[C@@H]1C(=O)N2C(C(=O)[O-])=C(C[n+]3ccccc3)CS[C@H]12)c1csc(N)n1)C(=O)O [CEFTAZIDIME]	14	42	60 (≈ 0.11 µM)	4 (≈ 7.32 µM)	1	16 (≈ 29.3 µM)	32 (≈ 58.5 µM)	1 (≈ 1.83 µM)	8 (≈ 14.6 µM)	0.125 (≈ 0.229 µM)	0.125 (≈ 0.229 µM)						
CO/N=C(\C(=O)N[C@@H]1C(=O)N2C(C(=O)O)=C(CSc3nc(=O)c(O)nn3C)CS[C@H]12)c1csc(N)n1 [CEFTRIAXONE]												94.5	25.4				
CCn1cc(C(=O)NCC2=C(C(=O)O)N3C(=O)[C@@H](NC(=O)/C(=N\OC(C)(C)C(=O)O)c4csc(N)n4)[C@H]3SC2)c(=O)c2cc(O)c(O)cc21	238.5	210	8 (≈ 0.0112 µM)	16 (≈ 22.4 µM)		< 0.008	0.25 (≈ 0.349 µM)	0.06 (≈ 0.0838 µM)	16 (≈ 22.4 µM)	0.06 (≈ 0.0838 µM)	< 0.008		17.5	0.01	7.2	99	
CC(C)(O/N=C(\C(=O)N[C@@H]1C(=O)N2C(C(=O)O)=C(CNC(=O)c3ccc(O)c(O)c3)CS[C@H]12)c1csc(N)n1)C(=O)O	27.2	75	8 (≈ 0.0129 µM)	8 (≈ 12.9 µM)			16 (≈ 25.8 µM)	0.015 (≈ 0.0242 µM)	16 (≈ 25.8 µM)	0.0125 (≈ 0.0201 µM)	< 0.008		44.8		8.5	96.3	0.06 (≈ 0.0967 µM)
